Patent publication US9084420B2, “Amide derivative, pest control agent containing the amide derivative, and pest controlling method” (Mitsui Chemicals Agro, Inc., priority 2008, dated 2015)
Where a name gives a salt, the structure may show the parent alone.

Tests used:
Plutella xylostella = experiment: Pesticidal test against Plutella xylostella (cabbage leaf immersion); type: in vivo; conditions: 144 h, 3-stage larvae on treated cabbage leaf, 25° C., after 6 days, read-out: pesticidal rate
Description: (§1) Pesticidal Test Against Plutella xylostella A piece of a cabbage leaf was immersed for 30 seconds in a chemical solution in which a test compound had been diluted at a predetermined concentration, and air-dried, and then put into a 7 cm polyethylene cup having a filter paper laid on the bottom thereof, and 3-stage larvae of Plutella xylostella were released. They were left to stand in a thermostatic chamber at 25° C., and the numbers of the living pests and the dead pests were examined after 6 days. The test was carried out with five larvae per group in two replicates.

Spodoptera litura = experiment: Pesticidal test against Spodoptera litura (cabbage leaf immersion); type: in vivo; conditions: 144 h, 2-stage larvae on treated cabbage leaf, 25° C., after 6 days, read-out: pesticidal rate
Description: as §1, with “Spodoptera litura” for “Plutella xylostella”, “2-stage” for “3-stage”

Structure (SMILES) | pest or weed control at 100 ppm (Plutella xylostella) [%] | pest or weed control at 100 ppm (Spodoptera litura) [%]
Cc1cc(C(F)(C(F)(F)F)C(F)(F)F)cc(C)c1N(CC(=O)O)C(=O)c1cccc(N(CC(=O)O)C(=O)c2ccccc2)c1F [8-13, 2-(N-(3((carboxymethyl)(2,6-dimethyl-4-(perfluoropropan-2-yl)phenyl)carbamoyl)-2-fluorophenyl)benzamide)acetic acid] | ≥ 70 | –
COC(=O)CCCN(C(=O)c1ccccc1)c1cccc(C(=O)N(C)c2c(C)cc(C(F)(C(F)(F)F)C(F)(F)F)cc2C)c1 [6-13, methyl 4-(N-(3-((2,6-dimethyl-4-(perfluoropropan-2-yl)phenyl)(methyl)carbamoyl)phenyl)benzamide)butanoate] | ≥ 70 | –
Cc1cc(C(F)(C(F)(F)F)C(F)(F)F)cc(C)c1N(CCO)C(=O)c1cccc(N(C)C(=O)c2ccccc2)c1F [7-23, N-(2,6-dimethyl-4-(perfluoropropan-2-yl)phenyl)-2-fluoro-N-(2-hydroxyethyl)-3-(N-methylbenzamide)benzamide] | ≥ 70 | –
Cc1cc(C(F)(C(F)(F)F)C(F)(F)F)cc(C)c1N(CC(N)=O)C(=O)c1cccc(N(C)C(=O)c2ccccc2)c1F [7-220, N-(2-amino-2-oxoethyl)-N-(2,6-dimethyl-4-(perfluoropropan-2-yl)phenyl)-2-fluoro-3-(N-methylbenzamide)benzamide] | ≥ 70 | ≥ 70
Cc1cc(C(F)(C(F)(F)F)C(F)(F)F)cc(C)c1NC(=O)c1cccc(N(CCC(=O)OCC(N)C(=O)O)C(=O)c2ccccc2)c1 (stereo not drawn) [5-25, 2-amino-3-(3-(N-(3-(2,6-dimethyl-4-(perfluoropropan-2-yl)phenylcarbamoyl)phenyl)benzamide)propanoyloxy)propanoic acid hydrochloric acid salt] | ≥ 70 | ≥ 70
Cc1cc(C(F)(C(F)(F)F)C(F)(F)F)cc(C)c1N(C)C(=O)c1cccc(N(CC(N)=O)C(=O)c2ccccc2)c1 [6-12, 3-(N-(2-amino-2-oxoethyl)benzamide)-N-(2,6-dimethyl-4-(perfluoropropan-2-yl)phenyl)-N-methylbenzamide] | ≥ 70 | ≥ 70
Cc1cc(C(F)(C(F)(F)F)C(F)(F)F)cc(C)c1NC(=O)c1cccc(N(CC/C(N)=N/O)C(=O)c2ccccc2)c1 [5-91, N-(3-amino-3-(hydroxyimino)propyl)-N-(3-(2,6-dimethyl-4-(perfluoropropan-2-yl)phenylcarbamoyl)phenyl)benzamide] | ≥ 70 | ≥ 70
Cc1cc(C(F)(C(F)(F)F)C(F)(F)F)cc(C)c1N(C)C(=O)c1cccc(N(C[S+](C)[O-])C(=O)c2ccccc2)c1 (stereo not drawn) [6-7, N-(2,6-dimethyl-4-(perfluoropropan-2-yl)phenyl)-N-methyl-3-(N-(methylsulfinylmethyl)benzamide)benzamide] | ≥ 70 | ≥ 70
CS(=O)(=O)CCN(C(=O)c1cccc(NC(=O)c2ccccc2)c1F)c1c(Br)cc(C(F)(C(F)(F)F)C(F)(F)F)cc1Br [7-169, 3-benzamide-N-(2,6-dibromo-4-(perfluoropropan-2-yl)phenyl)-2-fluoro-N-(2-(methylsulfonyl)ethyl)benzamide] | ≥ 70 | –
Cc1cc(C(F)(C(F)(F)F)C(F)(F)F)cc(C)c1N(C)C(=O)c1cccc(N(CC#N)C(=O)c2ccccc2)c1 [6-18, 3-(N-(cyanomethyl)benzamide)-N-(2,6-dimethyl-4-(perfluoropropan-2-yl)phenyl)-N-methylbenzamide] | ≥ 70 | ≥ 70
Cc1cc(C(F)(C(F)(F)F)C(F)(F)F)cc(C)c1NC(=O)c1cccc(N(CCC(=O)NCCCC(NC(=O)OC(C)(C)C)C(=O)OC(C)(C)C)C(=O)c2ccccc2)c1 (stereo not drawn) [5-15, tert-butyl 2-(3-(2,6-dimethyl-4-(perfluoropropan-2-yl)phenylcarbamoyl)phenyl)-14,14-dimethyl-1,5,12-trioxo-1-phenyl-13-oxa-2,6,11-triazapentadecane-10-carboxylate] | ≥ 70 | ≥ 70
Cc1cc(C(F)(C(F)(F)F)C(F)(F)F)cc(C)c1N(C)C(=O)c1cccc(N(CCO)C(=O)c2ccccc2)c1 [5-35, N-(2,6-dimethyl-4-(perfluoropropan-2-yl)phenyl)-3-(N-(2-hydroxyethyl)benzamide)-N-methylbenzamide] | ≥ 70 | ≥ 70
Cc1cc(C(F)(C(F)(F)F)C(F)(F)F)cc(C)c1N(C)C(=O)c1cccc(N(CS(C)(=O)=O)C(=O)c2ccccc2)c1 [6-8, N-(2,6-dimethyl-4-(perfluoropropan-2-yl)phenyl)-N-methyl-3-(N-(methylsulfonylmethyl)benzamide)benzamide] | ≥ 70 | ≥ 70
COC(=O)CCN(C(=O)c1ccccc1)c1cccc(C(=O)Nc2c(C)cc(C(F)(C(F)(F)F)C(F)(F)F)cc2C)c1 [5-1, methyl 3-(N-(3-(2,6-dimethyl-4-(perfluoropropan-2-yl)phenylcarbamoyl)phenyl)benzamide)propanoate] | ≥ 70 | ≥ 70
N#Cc1ccc(C(=O)N(CCC(=O)NCC(N)=O)c2cccc(C(=O)Nc3c(Br)cc(C(F)(C(F)(F)F)C(F)(F)F)cc3Br)c2F)cc1 [5-31, 3-(N-(3-(2-amino-2-oxoethylamino)-3-oxopropyl)-4-cyanobenzamide)-N-(2,6-dibromo-4-(perfluoropropan-2-yl)phenyl)-2-fluorobenzamide] | ≥ 70 | ≥ 70
Cc1cc(C(F)(C(F)(F)F)C(F)(F)F)cc(C)c1N(CCC(N)=O)C(=O)c1cccc(NC(=O)c2ccccc2)c1 [7-1, N-(3-amino-3-oxopropyl)-3-benzamide-N-(2,6-dimethyl-4-(perfluoropropan-2-yl)phenyl)benzamide] | ≥ 70 | ≥ 70
CNC(=O)NCCCN(C(=O)c1ccccc1)c1cccc(C(=O)Nc2c(C)cc(C(F)(C(F)(F)F)C(F)(F)F)cc2C)c1 [6-49, N-(3-(2,6-dimethyl-4-(perfluoropropan-2-yl)phenylcarbamoyl)phenyl)-N-(3-(3-methylureido)propyl)benzamide] | ≥ 70 | ≥ 70
Cc1cc(C(F)(C(F)(F)F)C(F)(F)F)cc(C)c1N(C)C(=O)c1cccc(N(CC[S+](C)[O-])C(=O)c2ccccc2)c1 (stereo not drawn) [5-72, N-(2,6-dimethyl-4-(perfluoropropan-2-yl)phenyl)-N-methyl-3-(N-(2-(methylsulfinyl)ethyl)benzamide)benzamide] | ≥ 70 | ≥ 70
CSCCN(C(=O)c1ccccc1)c1cccc(C(=O)N(C)c2c(C)cc(C(F)(C(F)(F)F)C(F)(F)F)cc2C)c1 [5-71, N-(2,6-dimethyl-4-(perfluoropropan-2-yl)phenyl)-N-methyl-3-(N-(2-(methylthio)ethyl)benzamide)benzamide] | ≥ 70 | ≥ 70
Cc1cc(C(F)(C(F)(F)F)C(F)(F)F)cc(C)c1N(C)C(=O)c1cccc(N(CCS(C)(=O)=O)C(=O)c2ccccc2)c1 [5-73, N-(2,6-dimethyl-4-(perfluoropropan-2-yl)phenyl)-N-methyl-3-(N-(2-(methylsulfonyl)ethyl)benzamide)benzamide] | ≥ 70 | ≥ 70
Cc1cc(C(F)(C(F)(F)F)C(F)(F)F)cc(C)c1NC(=O)c1cccc(N(CCCN)C(=O)c2ccccc2)c1 [6-20, N-(3-aminopropyl)-N-(3-(2,6-dimethyl-4-(perfluoropropan-2-yl)phenylcarbamoyl)phenyl)benzamide] | ≥ 70 | ≥ 70
Cc1cc(C(F)(C(F)(F)F)C(F)(F)F)cc(C)c1NC(=O)c1cccc(N(CCC(=O)O)C(=O)c2ccccc2)c1 [5-4, 3-(N-(3-(2,6-dimethyl-4-(perfluoropropan-2-yl)phenylcarbamoyl)phenyl)benzamide)propanoic acid] | ≥ 70 | –
Cc1cc(C(F)(C(F)(F)F)C(F)(F)F)cc(C)c1NC(=O)c1cccc(N(CCCN/C(N)=N/[N+](=O)[O-])C(=O)c2ccccc2)c1 [6-61, N-(3-(2,6-dimethyl-4-(perfluoropropan-2-yl)phenylcarbamoyl)phenyl)-N-(3-(2-nitroguanidino)propyl)benzamide] | – | ≥ 70
COC(=O)CCN(C(=O)c1cccc(NC(=O)c2ccccc2)c1)c1c(C)cc(C(F)(C(F)(F)F)C(F)(F)F)cc1C [7-6, methyl 3-(3-benzamide-N-(2,6-dimethyl-4-(perfluoropropan-2-yl)phenyl)benzamide)propanoate] | ≥ 70 | –
Cc1cc(C(F)(C(F)(F)F)C(F)(F)F)cc(C)c1NC(=O)c1cccc(N(CCC(=O)OCC(NC(=O)OC(C)(C)C)C(=O)OC(C)(C)C)C(=O)c2ccccc2)c1 (stereo not drawn) [5-22, tert-butyl 2-(tert-butoxycarbonylamino)-3-(3-(N-(3-(2,6-dimethyl-4-(perfluoropropan-2-yl)phenylcarbamoyl)phenyl)benzamide)propanoyloxy)propanoate] | ≥ 70 | ≥ 70
COC(=O)CN(C(=O)c1ccccc1)c1cccc(C(=O)N(C)c2c(C)cc(C(F)(C(F)(F)F)C(F)(F)F)cc2C)c1 [6-1, methyl 2-(N-(3((2,6-dimethyl-4-(perfluoropropan-2-yl)phenyl)(methyl)carbamoyl)phenyl)benzamide)acetate] | ≥ 70 | ≥ 70
